Results published in patent publication EP2902035B1, “Cell-permeable peptide inhibitors of the JNK signal transduction pathway for use in the treatment of inflammatory eye diseases” (Xigen Inflammation Ltd., priority 2010, dated 2012).

Legend:
ED1 positive cells = test: Quantification of infiltrating ED1 positive cells on histological sections in EIU; assay type: in vivo, Lewis rats; conditions: 24 hours after LPS challenge, mean ± SEM
Procedure: For immunohistochemistry, eyeballs were collected and fixed for 1h at room temperature in phosphate buffered saline (PBS) containing 4% paraformaldehyde before being rinsed overnight in PBS. The next day, samples were embedded and frozen in optimal cutting-temperature (OCT) compound (Tissue-Tek®, Sakura Finetek, Zoeterwoude, Netherland) and stored at -80°C. Frozen antero-posterior sections of eyes (10 µm thick) were performed at the optic nerve level using a cryostat (Leica CM 3050S, Rueil-Malmaison, France) and mounted on super-frost slides for immunohistochemical analysis.
(§1) A second set of experiment was designed to evaluate the anti-inflammatory effect of the JNK-inhibitor (poly-)peptide of SEQ ID NO: 11 at the cellular and tissue level as well as the biodistribution of this molecule 24 hours after administration. Rats were randomized into 11 experimental groups. 6 groups of rats with uveitis: untreated uveitic rats, rats injected intravenously with NaCl or the JNK-inhibitor (poly-)peptide of SEQ ID NO: 11 and rats injected intravitreously with the vehicle, the JNK-inhibitor (poly-)peptide of SEQ ID NO: 11 or dexamethasone. The 5 additional groups without uveitis were: untreated healthy rats, rats treated by NaCl IV or the JNK-inhibitor (poly-)peptide of SEQ ID NO: 11 IV and rats injected IVT with NaCl or the JNK-inhibitor (poly-)peptide of SEQ ID NO: 11. Three eyes from separate rats were collected per group and used for immunohistochemistry.
To characterize the cellular infiltrate, sections were double-stained with ED1 and iNOS. […] After staining nuclei with DAPI (Sigma-Aldrich, Saint-Quentin Fallavier, France), sections were mounted in PBS/Glycerol (1/1) and observed by fluorescence photomicroscopy (FXA, Microphot, Nikon, Melville, USA). […] ED1 positive cells and polymorphonuclear cells, identified by the shape of their nuclei stained with DAPI, were quantified on histological sections. […] Results were expressed as mean ± standard error of the mean (SEM).

iNOS positive cells = test: Immunohistochemistry of iNOS on eye sections in EIU; assay type: in vivo, Lewis rats; conditions: IV or IVT injection compared to control eyes, 24h
Procedure: as §1, with “immunohistochemistry. To characterize the cellular infiltrate, sections were double-stained with ED1 and iNOS. […] After staining nuclei with DAPI (Sigma-Aldrich, Saint-Quentin Fallavier, France), sections were mounted in PBS/Glycerol (1/1) and observed by fluorescence photomicroscopy (FXA, Microphot, Nikon, Melville, USA). […] ED1 positive cells and polymorphonuclear cells, identified by the shape of their nuclei stained with DAPI, were quantified on histological sections. […] Results were expressed as mean ± standard error of the mean (SEM).” for “immunohistochemistry.”

CC(C)C[C@@H](NC(=O)[C@@H](Cc1ccccc1)NC(=O)[C@H]1CCCN1C(=O)[C@@H](CCC(N)=O)NC(=O)[C@H](NC(=O)[C@H]1CCCN1C(=O)[C@@H](CCCNC(=N)N)NC(=O)[C@@H](CO)NC(=O)[C@@H](CCC(N)=O)NC(=O)[C@H](N)CC(=O)O)C(C)C)C(=O)N[C@H](CC(N)=O)C(=O)N[C@H](CC(C)C)C(=O)N[C@@H](C(=O)N[C@@H](C(=O)N1CCC[C@@H]1C(=O)N[C@H](CCCNC(=N)N)C(=O)N[C@H](CCCCN)C(=O)N1CCC[C@@H]1C(=O)N[C@H](CCCNC(=N)N)C(=O)N1CCC[C@@H]1C(=O)N1CCC[C@@H]1C(=O)N[C@H](CCCNC(=N)N)C(=O)N[C@H](CCCNC(=N)N)C(=O)N[C@H](CCCNC(=N)N)C(=O)N[C@H](CCC(N)=O)C(=O)N[C@H](CCCNC(=N)N)C(=O)N[C@H](CCCNC(=N)N)C(=O)N[C@H](CCCCN)C(=O)N[C@H](CCCCN)C(=O)N[C@H](CCCNC(=N)N)C(=O)NCC(=O)O)[C@H](C)O)[C@H](C)O [SEQ ID NO: 11]
number of ED1 positive cells (ED1 positive cells; IV injection (20 µg/kg)): 137 ± 7
number of ED1 positive infiltrating cells (ED1 positive cells; IVT injection (SEQ ID NO: 11: 0.2 µg/injection)): 93 ± 8
number of iNOS positive cells (iNOS positive cells): reduced
